Laboratory results taken from the NIST ThermoML archive (doi:10.1021/je900954y).

What was measured:
[1] = 101 kPa, Liquid
[2] = xn = mol fraction of the nth substance listed; conditions: 101 kPa, Liquid

OCCO [1,2-ethanediol]
[1]
Conditions | mass density [kg/m3] | viscosity [mPa·s]
298.15 K | 1109.2 | 15.41
303.15 K | 1104.2 | 12.73
308.15 K | 1100.6 | 10.66

OCCO [1,2-ethanediol] + CCC(C)O
[2], x2 = 0
Conditions | mass density [kg/m3] | viscosity [mPa·s]
298.15 K | 1109.2 | 15.41
303.15 K | 1104.2 | 12.73
308.15 K | 1100.6 | 10.66

CC(O)CO (stereo not drawn) [1,2-propanediol]
[1]
Conditions | mass density [kg/m3] | viscosity [mPa·s]
298.15 K | 1033.1 | 45.44
303.15 K | 1029.9 | 33.99
308.15 K | 1025.4 | 26.34

CC(O)CO (stereo not drawn) [1,2-propanediol] + CCCCCCCO
[2]
Conditions | mass density, 298.15 K [kg/m3] | mass density, 303.15 K [kg/m3] | mass density, 308.15 K [kg/m3] | viscosity, 298.15 K [mPa·s] | viscosity, 303.15 K [mPa·s] | viscosity, 308.15 K [mPa·s]
x2 = 0 | 1033.1 | 1029.9 | 1025.4 | 45.44 | 33.99 | 26.34
x2 = 0.1383 | 980.3 | 976.4 | 972 | 27.34 | 20.69 | 16.05
x2 = 0.3163 | 928.8 | 925 | 920.8 | 15.9 | 12.8 | 9.977
x2 = 0.386 | 912.5 | 908.6 | 904.6 | 13.64 | 10.88 | 8.925
x2 = 0.4049 | 908.3 | 904.4 | 900.4 | 13.19 | 10.75 | 8.567
x2 = 0.4673 | 895.4 | 891.6 | 887.6 | 11.94 | 9.431 | 7.663
x2 = 0.6097 | 869.7 | 866 | 862.2 | 9.882 | 7.655 | 6.373
x2 = 0.7341 | 851 | 847.3 | 843.7 | 8.159 | 6.401 | 5.414
x2 = 0.8294 | 838.5 | 834.9 | 831.3 | 7.132 | 5.815 | 4.963

CC(O)CO (stereo not drawn) [1,2-propanediol] + CCCCCCO
[2]
Conditions | mass density, 298.15 K [kg/m3] | mass density, 303.15 K [kg/m3] | mass density, 308.15 K [kg/m3] | viscosity, 298.15 K [mPa·s] | viscosity, 303.15 K [mPa·s] | viscosity, 308.15 K [mPa·s]
x2 = 0 | 1033.1 | 1029.9 | 1025.4 | 45.44 | 33.99 | 26.34
x2 = 0.0771 | 1004.5 | 1000.9 | 996.1 | 33.27 | 24.28 | 20.05
x2 = 0.1213 | 989.9 | 986.2 | 981.6 | 28.44 | 20.82 | 17.27
x2 = 0.2425 | 953.6 | 949.9 | 945.8 | 18.56 | 13.93 | 11.97
x2 = 0.3311 | 930.7 | 927 | 923.1 | 14.38 | 11.28 | 9.627
x2 = 0.5225 | 888.7 | 884.9 | 881.3 | 9.486 | 8.063 | 6.428
x2 = 0.5377 | 885.7 | 881.9 | 878.2 | 9.057 | 7.837 | 6.308
x2 = 0.6309 | 868.9 | 865.1 | 861.5 | 7.625 | 6.725 | 5.322
x2 = 0.7444 | 850.3 | 846.4 | 842.9 | 6.313 | 5.206 | 4.494
x2 = 0.8611 | 833.3 | 829.4 | 826 | 5.324 | 4.61 | 3.935

CCC(C)O (stereo not drawn) [butan-2-ol]
[1]
Conditions | mass density [kg/m3] | viscosity [mPa·s]
298.15 K | 802.4 | 2.999
303.15 K | 798.7 | 2.499
308.15 K | 793.8 | 2.475

CCC(C)O (stereo not drawn) [butan-2-ol] + OCCO
[2]
Conditions | mass density, 298.15 K [kg/m3] | mass density, 303.15 K [kg/m3] | mass density, 308.15 K [kg/m3] | viscosity, 298.15 K [mPa·s] | viscosity, 303.15 K [mPa·s] | viscosity, 308.15 K [mPa·s]
x1 = 0.0514 | 1085.8 | 1081.8 | 1078.5 | 14.67 | 12.2 | 10.24
x1 = 0.1049 | 1062.7 | 1059.1 | 1055.6 | 13.78 | 11.58 | 9.795
x1 = 0.1847 | 1029.6 | 1025.9 | 1022.8 | 12.29 | 10.43 | 8.898
x1 = 0.261 | 1000.3 | 996.7 | 993.4 | 10.82 | 9.184 | 7.897
x1 = 0.3516 | 968.3 | 964.6 | 960.9 | 9.089 | 7.76 | 6.681
x1 = 0.4562 | 934.5 | 930.7 | 926.9 | 7.352 | 6.211 | 5.442
x1 = 0.5039 | 920.3 | 916.4 | 912.5 | 6.669 | 5.641 | 4.96
x1 = 0.6639 | 876.9 | 873.1 | 868.9 | 4.971 | 4.182 | 3.803
x1 = 0.7723 | 850.9 | 847.3 | 842.9 | 4.301 | 3.618 | 3.347
x1 = 0.8751 | 828.2 | 824.7 | 820.1 | 3.791 | 3.18 | 3.034
x1 = 1 | 802.4 | 798.7 | 793.8 | 2.999 | 2.499 | 2.475

CCCCCCCO [heptan-1-ol]
[1]
Conditions | mass density [kg/m3] | viscosity [mPa·s]
298.15 K | 818.9 | 5.914
303.15 K | 815.4 | 5.045
308.15 K | 811.9 | 4.34

CCCCCCCO [heptan-1-ol] + CC(O)CO
[2], x1 = 1
Conditions | mass density [kg/m3] | viscosity [mPa·s]
298.15 K | 818.9 | 5.914
303.15 K | 815.4 | 5.045
308.15 K | 811.9 | 4.34

CCCCCCO [hexan-1-ol]
[1]
Conditions | mass density [kg/m3] | viscosity [mPa·s]
298.15 K | 815.4 | 4.643
303.15 K | 811.5 | 3.999
308.15 K | 808.3 | 3.471

CCCCCCO [hexan-1-ol] + CC(O)CO
[2], x1 = 1
Conditions | mass density [kg/m3] | viscosity [mPa·s]
298.15 K | 815.4 | 4.643
303.15 K | 811.5 | 3.999
308.15 K | 808.3 | 3.471
